The structures appear in SMILES notation.

Usually IC50 stands for the point on the concentration scale where inhibition reaches its midpoint. Read a high IC50 as weaker potency in that assay.

The target in this experiment is T1, SHP-2 enzyme (Met1-Leu525) (Homo sapiens, UniProt Q06124).
T1 construct: synthetized by Origene, Met1-Leu525, cat #TP750155; purchased Origene TP750155
T1 sequence (Q06124 1-525): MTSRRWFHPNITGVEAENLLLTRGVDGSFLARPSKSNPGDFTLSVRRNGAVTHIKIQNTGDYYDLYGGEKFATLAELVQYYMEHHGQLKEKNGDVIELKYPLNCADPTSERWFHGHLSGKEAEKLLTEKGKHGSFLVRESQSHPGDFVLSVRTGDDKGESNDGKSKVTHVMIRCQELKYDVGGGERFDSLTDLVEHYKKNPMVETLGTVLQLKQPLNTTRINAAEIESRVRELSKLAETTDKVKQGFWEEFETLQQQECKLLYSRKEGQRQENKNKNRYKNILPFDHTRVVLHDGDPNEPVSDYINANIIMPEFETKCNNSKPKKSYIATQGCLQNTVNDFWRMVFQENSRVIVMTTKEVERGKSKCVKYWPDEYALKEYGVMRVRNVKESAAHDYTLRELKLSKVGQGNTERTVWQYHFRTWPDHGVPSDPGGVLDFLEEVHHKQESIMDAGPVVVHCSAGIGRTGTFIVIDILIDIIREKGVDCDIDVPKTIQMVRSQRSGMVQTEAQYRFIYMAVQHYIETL
In words: SHP2 inhibition enzymatic assay (DiFMUP substrate, IRS1 peptide activation). The class given is biochemical. The conditions noted are these: SHP2 wt; activated by 500 nM IRS1 peptide; 75 μM DiFMUP substrate. How it is done: SHP2 Inhibition Enzymatic Assay
Assay volume of 20 μL/well was assembled in 384 well black polystyrene low-binding microplates (Greiner), using the following buffer: 60 mM HEPES pH 7.2, 75 mM NaCl, 75 mM KCl, 1 mM EDTA pH 8, 0.05% tween-20, 5 mM DTT. The SHP-2 enzyme (synthetized by Origene, Met1-Leu525, cat #TP750155) was used at a final concentration of 0.5 nM.
Briefly, DMSO serially diluted testing compounds were transferred to the bottom of the assay plate. SHP2 was then added together with the IRS1 peptide. 30 minutes post incubation, the DiFMUP substrate was added to the reaction and incubated 30 min at room temperature. […] The fluorescence was detected by a microplate reader (Envision, PerkinElmer) according to the DiFMUP excitation and emission wavelength. The lower the fluorescence the higher the SHP2 inhibition.
The percentage inhibition is fitted against the compound dilutions with a four-parameter logistic regression. The inflection point (i.e. the concentration at which half-maximal inhibition is achieved) is the IC50.
`CC(C)=Cc1ccccc1Sc1cnc2[nH]c(N3CCC(C)(N)CC3)nc2n1` [Example 75, 4-methyl-1-(5-((2-(2-methylprop-1-en-1-yl)phenyl)thio)-1H-imidazo[4,5-b]pyrazin-2-yl)piperidin-4-amine] came in with an IC50 above 3 µM.
In turn, `CS(=O)(=O)NC1CCN(c2nc3nc(Sc4cccnc4C(F)(F)F)cnc3[nH]2)CC1` [Example 40, N-(1-(5-((2-(trifluoromethyl)pyridin-3-yl)thio)-1H-imidazo[4,5-b]pyrazin-2-yl)piperidin-4-yl)methanesulfonamide] returned an IC50 above 3 µM.
With `CC1(N)CCN(c2nc3ncc(Sc4cccc5ncccc45)nc3[nH]2)CC1` [Example 49, 4-methyl-1-(6-(quinolin-5-ylthio)-1H-imidazo[4,5-b]pyrazin-2-yl)piperidin-4-amine] the figure was below 0.5 µM.
Under `OC1CCN(c2nc3nc(Sc4cccnc4C(F)(F)F)cnc3[nH]2)CC1` [Example 41, 1-(5-((2-(trifluoromethyl)pyridin-3-yl)thio)-1H-imidazo[4,5-b]pyrazin-2-yl)piperidin-4-ol] stands above 3 µM.
In turn, `CN(C)c1ncccc1Sc1cnc2[nH]c(N3CCC4(CC3)Cc3ccccc3[C@H]4N)nc2n1` [Example 211, (S)-1′-(5-((2-(dimethylamino)pyridin-3-yl)thio)-1H-imidazo[4,5-b]pyrazin-2-yl)-1,3-dihydrospiro[indene-2,4′-piperidin]-1-amine] came in with an IC50 below 0.5 µM.
Under `COc1ncccc1Sc1cnc2[nH]c(N3CCC4(CC3)Cc3ccccc3[C@H]4N)nc2n1` [Example 214, (S)-1′-(5-((2-methoxypyridin-3-yl)thio)-1H-imidazo[4,5-b]pyrazin-2-yl)-1,3-dihydrospiro[indene-2,4′-piperidin]-1-amine] stands below 0.5 µM; under `CC1(N)CCN(c2nc3nc(Sc4ccn5nccc5n4)cnc3[nH]2)CC1` [Example 65, 4-methyl-1-(5-(pyrazolo[1,5-a]pyrimidin-5-ylthio)-1H-imidazo[4,5-b]pyrazin-2-yl)piperidin-4-amine], above 3 µM; under `NC1CCCN(c2nc3nc(Sc4cccnc4C(F)(F)F)cnc3[nH]2)C1` (centres unmarked) [Example 33, 1-(5-((2-(trifluoromethyl)pyridin-3-yl)thio)-1H-imidazo[4,5-b]pyrazin-2-yl)piperidin-3-amine], below 0.5 µM.
With `Nc1cnccc1Sc1cnc2[nH]c(N3CCC4(CC3)Cc3ccccc3[C@H]4N)nc2n1` [Example 210, (S)-1′-(5-((3-aminopyridin-4-yl)thio)-1H-imidazo[4,5-b]pyrazin-2-yl)-1,3-dihydrospiro[indene-2,4′-piperidin]-1-amine] the figure was below 0.5 µM; with `CC1(N)CCN(c2nc3nc(Sc4ccnc5ccnn45)cnc3[nH]2)CC1` [Example 104, 4-methyl-1-(5-(pyrazolo[1,5-a]pyrimidin-7-ylthio)-1H-imidazo[4,5-b]pyrazin-2-yl)piperidin-4-amine], above 3 µM.
Under `CC1(N)CCN(c2nc3nc(Sc4cccc(CC(=O)O)c4)cnc3[nH]2)CC1` [Example 103, 2-(3-((2-(4-amino-4-methylpiperidin-1-yl)-1H-imidazo[4,5-b]pyrazin-5-yl)thio)phenyl)acetic acid] stands below 0.5 µM; under `NC(=O)C1CCN(c2nc3nc(Sc4cccnc4C(F)(F)F)cnc3[nH]2)CC1` [Example 51, 1-(5-((2-(trifluoromethyl)pyridin-3-yl)thio)-1H-imidazo[4,5-b]pyrazin-2-yl)piperidine-4-carboxamide], above 3 µM; under `CC1(N)CCN(c2nc3ncc(Sc4csc5ccccc45)nc3[nH]2)CC1` [Example 30, 1-(6-(benzo[b]thiophen-3-ylthio)-1H-imidazo[4,5-b]pyrazin-2-yl)-4-methylpiperidin-4-amine], above 3 µM.
`FC(F)(F)c1ncccc1Sc1cnc2[nH]c(N3CCCCC3)nc2n1` [Example 31, 2-(piperidin-1-yl)-5-((2-(trifluoromethyl)pyridin-3-yl)thio)-1H-imidazo[4,5-b]pyrazine] returned an IC50 of 0.5 to 3 µM.
Under `FC(F)(F)c1ncccc1Sc1cnc2[nH]c(N3CCC(Cn4ccnc4)CC3)nc2n1` [Example 42, 2-(4-((1H-imidazol-1-yl)methyl)piperidin-1-yl)-5-((2-(trifluoromethyl)pyridin-3-yl)thio)-1H-imidazo[4,5-b]pyrazine] stands 0.5 to 3 µM; under `CC1(N)CCN(c2nc3nc(Sc4ccc5ccccc5c4)cnc3[nH]2)CC1` [Example 81, 4-methyl-1-(5-(naphthalen-2-ylthio)-1H-imidazo[4,5-b]pyrazin-2-yl)piperidin-4-amine], 0.5 to 3 µM; under `Cn1ncc2cc(Sc3cnc4nc(N5CCC(C)(N)CC5)[nH]c4n3)ccc21` [Example 6, 4-methyl-1-(6-((1-methyl-1H-indazol-5-yl)thio)-1H-imidazo[4,5-b]pyrazin-2-yl)piperidin-4-amine], 0.5 to 3 µM.
`CC1(N)CCN(c2nc3nc(Sc4cccc(C#N)c4)cnc3[nH]2)CC1` [Example 26, 3-((2-(4-amino-4-methylpiperidin-1-yl)-1H-imidazo[4,5-b]pyrazin-5-yl)thio)benzonitrile] yielded a 50% inhibitory concentration (IC50) of 0.5 to 3 µM.
Under `Cc1ccsc1Sc1cnc2[nH]c(N3CCC(C)(N)CC3)nc2n1` [Example 68, 4-methyl-1-(5-((3-methylthiophen-2-yl)thio)-1H-imidazo[4,5-b]pyrazin-2-yl)piperidin-4-amine] stands above 3 µM.
With `CC(N)C1CN(c2nc3nc(Sc4cccnc4C(F)(F)F)cnc3[nH]2)CCO1` (centres unmarked) [Example 86, 1-(4-(5-((2-(trifluoromethyl)pyridin-3-yl)thio)-1H-imidazo[4,5-b]pyrazin-2-yl)morpholin-2-yl)ethan-1-amine] the figure was 0.5 to 3 µM; with `Cc1cc(Sc2cnc3[nH]c(N4CCC(C)(N)CC4)nc3n2)c2ccccc2n1` [Example 106, 4-methyl-1-(5-((2-methylquinolin-4-yl)thio)-1H-imidazo[4,5-b]pyrazin-2-yl)piperidin-4-amine], above 3 µM; with `FC(F)(F)c1ncccc1Sc1cnc2[nH]c(NCc3cccnc3N3CCOCC3)nc2n1` [Example 112, N-((2-morpholinopyridin-3-yl)methyl)-5-((2-(trifluoromethyl)pyridin-3-yl)thio)-1H-imidazo[4,5-b]pyrazin-2-amine], above 3 µM.
Under `O=C1NCC2(CCCN(c3nc4nc(Sc5cccnc5C(F)(F)F)cnc4[nH]3)C2)O1` (centres unmarked) [Example 83, 7-(5-((2-(trifluoromethyl)pyridin-3-yl)thio)-1H-imidazo[4,5-b]pyrazin-2-yl)-1-oxa-3,7-diazaspiro[4.5]decan-2-one] stands above 3 µM; under `CC(N)CCNc1nc2nc(Sc3cccnc3C(F)(F)F)cnc2[nH]1` (centres unmarked) [Example 54, N1-(5-((2-(trifluoromethyl)pyridin-3-yl)thio)-1H-imidazo[4,5-b]pyrazin-2-yl)butane-1,3-diamine], 0.5 to 3 µM.
`COc1ccc2nc(Sc3cnc4[nH]c(N5CCC(C)(N)CC5)nc4n3)ccc2c1` [Example 69, 1-(5-((6-methoxyquinolin-2-yl)thio)-1H-imidazo[4,5-b]pyrazin-2-yl)-4-methylpiperidin-4-amine] registered an IC50 of 0.5 to 3 µM.
In turn, `FC(F)(F)c1ncccc1Sc1cnc2[nH]c(N3CCC4(CCN4)CC3)nc2n1` [Example 5, 2-(1,7-diazaspiro[3.5]nonan-7-yl)-5-((2-(trifluoromethyl)pyridin-3-yl)thio)-1H-imidazo[4,5-b]pyrazine] displayed a half-inhibitory concentration (IC50) of 0.5 to 3 µM.

(Values after patent publication US20220289753A1, “SHP2 INHIBITORS” (IRBM S.P.A., priority 2019, published 2022).)
